Results from PubChem BioAssay (NCI).
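GI50 is the concentration that inhibits growth by half. The concentration for full growth arrest is given as TGI.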

Columns and labels:
Assay in all cases: inhibition of tumour cell growth, NCI panel, 384-well format
[1] = system: OVCAR-3 ovarian
[2] = system: SF-295 CNS
[3] = system: HCT-116 colon
[4] = system: SNB-75 CNS
[5] = system: EKVX NSCLC
[6] = system: NCI-H460 NSCLC
[7] = system: HCC-2998 colon
[8] = system: UACC-62 melanoma
[9] = system: OVCAR-4 ovarian
[10] = system: KM12 colon
[11] = system: SW-620 colon
[12] = system: ACHN renal
[13] = system: MDA-MB-468 breast
[14] = system: IGROV1 ovarian
[15] = system: HT29 colon
[16] = system: LOX IMVI melanoma
[17] = system: HS 578T breast
[18] = system: NCI-H23 lung
[19] = system: HCT-15 colon
[20] = system: A549 NSCLC
[21] = system: T-47D breast
[22] = system: OVCAR-8 ovarian
[23] = system: HOP-92 NSCLC
[24] = system: NCI/ADR-RES ovarian
[25] = system: SN12C renal
[26] = system: TK-10 renal
[27] = system: HOP-62 NSCLC
[28] = system: NCI-H226 lung
[29] = system: K-562 leukemia
[30] = system: RPMI-8226 leukemia
[31] = system: A498 renal
[32] = system: SF-268 CNS
[33] = system: UACC-257 melanoma
[34] = system: 786-0 renal
[35] = system: NCI-H522 lung
[36] = system: SK-MEL-28 melanoma
[37] = system: COLO 205 colon
[38] = system: BT-549 breast
[39] = system: CCRF-CEM leukemia
[40] = system: SK-OV-3 ovarian
[41] = system: MALME-3M melanoma
[42] = system: HL-60(TB) leukemia
[43] = system: DU-145 prostate
[44] = system: MCF7 breast
[45] = system: SK-MEL-5 melanoma
[46] = system: MDA-MB-231 breast
[47] = system: SF-539 CNS
[48] = system: SNB-19 CNS
[49] = system: PC-3 prostate
[50] = system: RXF 393 renal
[51] = system: NCI-H322M lung
[52] = system: MDA-MB-435 melanoma
[53] = system: M14 melanoma
[54] = system: U251 glioblastoma
[55] = system: OVCAR-5 ovarian
[56] = system: CAKI-1 renal
[57] = system: UO-31 renal
[58] = system: MOLT-4 leukemia

CN1CCN(CCOc2cc(OC3CCOCC3)c3c(Nc4c(Cl)ccc5c4OCO5)ncnc3c2)CC1
GI50 [1]: 1140 nM
TGI [1]: 16.8 µM
GI50 [2]: 11.4 µM
TGI [2]: 23.5 µM
GI50 [3]: 10.7 µM
TGI [3]: 22.5 µM
GI50 [4]: 233 nM
TGI [4]: 835 nM
GI50 [5]: 552 nM
TGI [5]: 11.9 µM
GI50 [6]: 12.7 µM
TGI [6]: 25.5 µM
GI50 [7]: 5250 nM
TGI [7]: 19 µM
GI50 [8]: 14.1 µM
TGI [8]: 27.1 µM
GI50 [9]: 13 µM
TGI [9]: 26.1 µM
GI50 [10]: 658 nM
TGI [10]: 14 µM
GI50 [11]: 19.3 µM
TGI [11]: 33.5 µM
GI50 [12]: 317 nM
TGI [12]: 12.6 µM
GI50 [13]: 403 nM
TGI [13]: 1950 nM
GI50 [14]: 60.3 nM
TGI [14]: 0.295 µM
GI50 [15]: 1430 nM
TGI [15]: 8.86 µM
GI50 [16]: 448 nM
TGI [16]: 7 µM
GI50 [17]: 387 nM
TGI [17]: 4.35 µM
GI50 [18]: 5770 nM
TGI [18]: 20.9 µM
GI50 [19]: 3680 nM
TGI [19]: 18.9 µM
GI50 [20]: 1450 nM
TGI [20]: 17.9 µM
GI50 [21]: 171 nM
TGI [21]: 3.06 µM
GI50 [22]: 8.72 µM
TGI [22]: 21.3 µM
GI50 [23]: 2330 nM
TGI [23]: 17.4 µM
GI50 [24]: 10.6 µM
TGI [24]: 23.8 µM
GI50 [25]: 377 nM
TGI [25]: 12.8 µM
GI50 [26]: 1670 nM
TGI [26]: 5.54 µM
GI50 [27]: 6.29 µM
TGI [27]: 19.7 µM
GI50 [28]: 12.5 µM
TGI [28]: 26.6 µM
GI50 [29]: 132 nM
TGI [29]: 0.306 µM
GI50 [30]: 14.4 µM
TGI [30]: 27.5 µM
GI50 [31]: 1950 nM
TGI [31]: 12.6 µM
GI50 [32]: 550 nM
TGI [32]: 3180 nM
GI50 [33]: 2530 nM
TGI [33]: 10.5 µM
GI50 [34]: 943 nM
TGI [34]: 15.2 µM
GI50 [35]: 179 nM
TGI [35]: 10.7 µM
GI50 [36]: 14.7 µM
TGI [36]: 27.9 µM
GI50 [37]: 14.9 µM
TGI [37]: 28.1 µM
GI50 [38]: 2770 nM
TGI [38]: 16.2 µM
GI50 [39]: 14.3 µM
TGI [39]: 27.4 µM
GI50 [40]: 317 nM
TGI [40]: 13 µM
GI50 [41]: 14.1 µM
TGI [41]: 27.1 µM
GI50 [42]: 22.3 µM
TGI [42]: 36.8 µM
GI50 [43]: 5.09 µM
TGI [43]: 18.7 µM
GI50 [44]: 9.74 µM
TGI [44]: 21.7 µM
GI50 [45]: 10.8 µM
TGI [45]: 22.8 µM
GI50 [46]: 2830 nM
TGI [46]: 17.6 µM
GI50 [47]: 10.7 µM
TGI [47]: 22.6 µM
GI50 [48]: 9.59 µM
TGI [48]: 29 µM
GI50 [49]: 14.1 µM
TGI [49]: 35 µM
GI50 [50]: 215 nM
TGI [50]: 2940 nM
GI50 [51]: 387 nM
TGI [51]: 10.3 µM
GI50 [52]: 16.2 µM
TGI [52]: 29.8 µM
GI50 [53]: 15.2 µM
TGI [53]: 28.6 µM
GI50 [54]: 6.67 µM
TGI [54]: 19.9 µM
GI50 [55]: 679 nM
TGI [55]: 12 µM
GI50 [56]: 514 nM
TGI [56]: 13.6 µM
GI50 [57]: 446 nM
TGI [57]: 15.4 µM
GI50 [58]: 8.27 µM
TGI [58]: 21.2 µM

O=C(Nc1cc(Oc2cc(F)c(NC(=O)C3(C(=O)Nc4ccc(F)cc4)CC3)cc2F)ccn1)C1CC1
GI50 [1]: 2350 nM
TGI [1]: 6 µM
GI50 [2]: 1.2 µM
TGI [2]: 5.14 µM
GI50 [3]: 0.801 µM
TGI [3]: 54.9 µM
GI50 [4]: 1620 nM
TGI [4]: 3030 nM
GI50 [5]: 1730 nM
TGI [5]: 4.38 µM
GI50 [6]: 1.98 µM
TGI [6]: 4.31 µM
GI50 [7]: 647 nM
TGI [7]: 4.23 µM
GI50 [8]: 0.394 µM
TGI [8]: 1.6 µM
GI50 [9]: 3.98 µM
TGI [9]: 8.26 µM
TGI [10]: 2.72 µM
GI50 [11]: 2.38 µM
TGI [11]: 6.96 µM
GI50 [12]: 1660 nM
TGI [12]: 7.31 µM
GI50 [13]: 1980 nM
TGI [13]: 3500 nM
GI50 [14]: 1260 nM
TGI [14]: 6.93 µM
GI50 [15]: 659 nM
TGI [15]: 39 µM
GI50 [16]: 1250 nM
TGI [16]: 2.71 µM
GI50 [17]: 1350 nM
TGI [17]: 2.71 µM
GI50 [18]: 173 nM
TGI [18]: 0.578 µM
GI50 [19]: 1930 nM
TGI [19]: 5.65 µM
GI50 [20]: 1700 nM
TGI [20]: 8.94 µM
GI50 [21]: 1380 nM
TGI [21]: 5.17 µM
GI50 [22]: 1.95 µM
TGI [22]: 9.88 µM
GI50 [23]: 2340 nM
TGI [23]: > 100 µM
GI50 [24]: 1.78 µM
TGI [24]: 6.99 µM
GI50 [25]: 1650 nM
TGI [25]: 4.5 µM
GI50 [26]: 3130 nM
TGI [26]: 20.8 µM
GI50 [27]: 0.306 µM
TGI [27]: 1.62 µM
GI50 [28]: 2.21 µM
TGI [28]: 7.21 µM
GI50 [29]: 320 nM
TGI [29]: 13.9 µM
GI50 [30]: 1.93 µM
TGI [30]: 3.37 µM
GI50 [31]: 3020 nM
TGI [31]: 8.19 µM
GI50 [32]: 364 nM
TGI [32]: 962 nM
GI50 [33]: 1110 nM
TGI [33]: 2.68 µM
GI50 [34]: 2000 nM
TGI [34]: 8.41 µM
GI50 [35]: 2060 nM
TGI [35]: 4.17 µM
GI50 [36]: 1.4 µM
TGI [36]: 2.78 µM
GI50 [37]: 0.66 µM
TGI [37]: 2.87 µM
GI50 [38]: 2370 nM
TGI [38]: 4.71 µM
GI50 [39]: 0.445 µM
TGI [39]: 1.47 µM
GI50 [40]: 3120 nM
TGI [40]: 9.2 µM
GI50 [41]: 0.249 µM
TGI [41]: 1.1 µM
GI50 [42]: 1.15 µM
TGI [42]: 2.38 µM
GI50 [43]: 1.07 µM
TGI [43]: 61.4 µM
GI50 [44]: 0.376 µM
TGI [44]: 2.09 µM
GI50 [45]: 0.512 µM
TGI [45]: 1.94 µM
GI50 [46]: 472 nM
TGI [46]: 91.7 µM
GI50 [47]: 1.46 µM
TGI [47]: 2.93 µM
GI50 [48]: 2.75 µM
TGI [48]: 11.4 µM
GI50 [49]: 3.3 µM
TGI [49]: 8.13 µM
GI50 [50]: 1200 nM
TGI [50]: 2510 nM
GI50 [51]: 1600 nM
TGI [51]: 6.88 µM
GI50 [52]: 1.2 µM
TGI [52]: 2.82 µM
GI50 [53]: 0.349 µM
TGI [53]: 1.43 µM
GI50 [54]: 2.5 µM
TGI [54]: 6.32 µM
GI50 [55]: 2350 nM
TGI [55]: 14.8 µM
GI50 [56]: 1510 nM
TGI [56]: 3.28 µM
GI50 [57]: 2070 nM
TGI [57]: 7.07 µM
GI50 [58]: 0.624 µM
TGI [58]: 1.92 µM
